Results reported in ChEMBL document CHEMBL4052791, “GNE-886: A Potent and Selective Inhibitor of the Cat Eye Syndrome Chromosome Region Candidate 2 Bromodomain (CECR2)” (ACS Med Chem Lett, 2017).

biological target: Chromatin remodeling regulator CECR2 (Homo sapiens, UniProt Q9BXF3); experiment: Inhibition of recombinant human N-terminal His6-FLAG-tagged CECR2 expressed in Rosetta2 (DE3) pLysS cells after 60 mins by TR-FRET assay; format: cell-based
Sequence (Q9BXF3 whole entry): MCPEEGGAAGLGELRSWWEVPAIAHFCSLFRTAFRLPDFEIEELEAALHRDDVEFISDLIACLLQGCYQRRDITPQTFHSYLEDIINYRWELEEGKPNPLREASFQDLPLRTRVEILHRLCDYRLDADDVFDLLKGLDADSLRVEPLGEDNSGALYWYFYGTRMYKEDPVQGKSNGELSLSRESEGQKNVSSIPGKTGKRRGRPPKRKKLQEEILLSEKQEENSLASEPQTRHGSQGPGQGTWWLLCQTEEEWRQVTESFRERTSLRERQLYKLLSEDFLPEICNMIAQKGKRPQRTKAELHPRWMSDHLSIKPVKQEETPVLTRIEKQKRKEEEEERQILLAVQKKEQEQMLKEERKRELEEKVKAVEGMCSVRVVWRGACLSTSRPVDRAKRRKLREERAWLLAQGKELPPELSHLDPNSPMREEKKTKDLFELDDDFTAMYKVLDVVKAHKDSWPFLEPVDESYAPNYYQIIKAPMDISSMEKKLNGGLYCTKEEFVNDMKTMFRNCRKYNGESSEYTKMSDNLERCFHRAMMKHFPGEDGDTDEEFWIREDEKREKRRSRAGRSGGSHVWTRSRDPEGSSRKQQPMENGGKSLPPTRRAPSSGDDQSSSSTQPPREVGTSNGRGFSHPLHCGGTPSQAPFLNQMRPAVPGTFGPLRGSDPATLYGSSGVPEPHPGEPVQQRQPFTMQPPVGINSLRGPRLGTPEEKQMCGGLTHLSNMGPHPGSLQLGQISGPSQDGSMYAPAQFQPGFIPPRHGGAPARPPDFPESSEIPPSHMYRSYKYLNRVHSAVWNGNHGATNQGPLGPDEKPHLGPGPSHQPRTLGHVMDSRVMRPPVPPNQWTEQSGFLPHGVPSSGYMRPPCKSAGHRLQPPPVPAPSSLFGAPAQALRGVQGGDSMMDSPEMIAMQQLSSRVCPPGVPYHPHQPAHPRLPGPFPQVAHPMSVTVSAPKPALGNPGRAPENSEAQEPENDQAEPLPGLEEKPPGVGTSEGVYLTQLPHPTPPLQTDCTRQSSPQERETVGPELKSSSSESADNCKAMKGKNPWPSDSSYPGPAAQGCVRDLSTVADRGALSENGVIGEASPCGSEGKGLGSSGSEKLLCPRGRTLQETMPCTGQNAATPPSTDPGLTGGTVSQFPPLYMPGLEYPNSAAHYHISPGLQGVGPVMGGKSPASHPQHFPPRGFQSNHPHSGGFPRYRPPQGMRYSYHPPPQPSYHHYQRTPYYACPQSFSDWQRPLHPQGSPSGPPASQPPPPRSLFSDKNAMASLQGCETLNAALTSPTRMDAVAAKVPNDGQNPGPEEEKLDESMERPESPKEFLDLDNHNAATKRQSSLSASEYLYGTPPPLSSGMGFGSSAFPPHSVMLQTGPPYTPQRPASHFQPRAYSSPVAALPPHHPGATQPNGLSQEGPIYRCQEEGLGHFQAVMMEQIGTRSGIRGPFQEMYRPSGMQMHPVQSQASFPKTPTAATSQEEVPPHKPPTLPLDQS

SMILES | IC50 [nM]
CN1CCC(N(C)C(=O)c2cn(C)c(=O)c3[nH]ccc23)CC1 | 780
C=CCn1cc(C(=O)N(C)C2CCN(c3cc(-c4ccco4)ncn3)CC2)c2cc[nH]c2c1=O | 45
C=CCn1cc(C(=O)N(C)C2CCN(c3cc(OC)nc(C)n3)CC2)c2cc[nH]c2c1=O | 71
C=CCn1cc(C(=O)N(C)C2CCN(c3cc(C)nc(C)n3)CC2)c2cc[nH]c2c1=O | 93
CN1CCC(NC(=O)c2cn(C)c(=O)c3[nH]ccc23)CC1 | 1100
C=CCn1cc(C(=O)N(C)C2CCN(c3cc(-c4ccccc4F)ncn3)CC2)c2cc[nH]c2c1=O | 44
C=CCn1cc(C(=O)N(C)C2CCN(c3cc(C4CC4)nc(C)n3)CC2)c2cc[nH]c2c1=O | 52

Continued by falling IC50, values first:

IC50 [nM] | SMILES
240 | C=CCn1cc(C(=O)N(C)C2CCN(c3ccncn3)CC2)c2cc[nH]c2c1=O
130 | C=CCn1cc(C(=O)N(C)C2CCN(c3cc(OC)ncn3)CC2)c2cc[nH]c2c1=O
83 | C=CCn1cc(C(=O)N(C)C2CCN(c3cc(C4CC4)ncn3)CC2)c2cc[nH]c2c1=O
45 | C=CCn1cc(C(=O)N(C)C2CCN(c3cc(-c4ccccc4OC)ncn3)CC2)c2cc[nH]c2c1=O

biological target: T1, Bromodomain-containing protein 4 (Homo sapiens, UniProt O60885); experiment: Inhibition of recombinant human N-terminal His6-FLAG-tagged BRD4 bromodomain 2 (unknown origin) expressed in Rosetta2 (DE3) pLysS cells after 60 mins by TR-FRET assay; format: cell-based

SMILES | IC50 [nM]
CN1CCC(N(C)C(=O)c2cn(C)c(=O)c3[nH]ccc23)CC1 | 17200
CN1CCC(NC(=O)c2cn(C)c(=O)c3[nH]ccc23)CC1 | > 20000

biological target: Transcription initiation factor TFIID subunit 1 (Homo sapiens, UniProt P21675); experiment: Inhibition of recombinant human N-terminal His6-FLAG-tagged TAF1 bromodomain 2 (unknown origin) expressed in Rosetta2 (DE3) pLysS cells after 60 mins by TR-FRET assay; format: cell-based
Sequence (P21675 whole entry): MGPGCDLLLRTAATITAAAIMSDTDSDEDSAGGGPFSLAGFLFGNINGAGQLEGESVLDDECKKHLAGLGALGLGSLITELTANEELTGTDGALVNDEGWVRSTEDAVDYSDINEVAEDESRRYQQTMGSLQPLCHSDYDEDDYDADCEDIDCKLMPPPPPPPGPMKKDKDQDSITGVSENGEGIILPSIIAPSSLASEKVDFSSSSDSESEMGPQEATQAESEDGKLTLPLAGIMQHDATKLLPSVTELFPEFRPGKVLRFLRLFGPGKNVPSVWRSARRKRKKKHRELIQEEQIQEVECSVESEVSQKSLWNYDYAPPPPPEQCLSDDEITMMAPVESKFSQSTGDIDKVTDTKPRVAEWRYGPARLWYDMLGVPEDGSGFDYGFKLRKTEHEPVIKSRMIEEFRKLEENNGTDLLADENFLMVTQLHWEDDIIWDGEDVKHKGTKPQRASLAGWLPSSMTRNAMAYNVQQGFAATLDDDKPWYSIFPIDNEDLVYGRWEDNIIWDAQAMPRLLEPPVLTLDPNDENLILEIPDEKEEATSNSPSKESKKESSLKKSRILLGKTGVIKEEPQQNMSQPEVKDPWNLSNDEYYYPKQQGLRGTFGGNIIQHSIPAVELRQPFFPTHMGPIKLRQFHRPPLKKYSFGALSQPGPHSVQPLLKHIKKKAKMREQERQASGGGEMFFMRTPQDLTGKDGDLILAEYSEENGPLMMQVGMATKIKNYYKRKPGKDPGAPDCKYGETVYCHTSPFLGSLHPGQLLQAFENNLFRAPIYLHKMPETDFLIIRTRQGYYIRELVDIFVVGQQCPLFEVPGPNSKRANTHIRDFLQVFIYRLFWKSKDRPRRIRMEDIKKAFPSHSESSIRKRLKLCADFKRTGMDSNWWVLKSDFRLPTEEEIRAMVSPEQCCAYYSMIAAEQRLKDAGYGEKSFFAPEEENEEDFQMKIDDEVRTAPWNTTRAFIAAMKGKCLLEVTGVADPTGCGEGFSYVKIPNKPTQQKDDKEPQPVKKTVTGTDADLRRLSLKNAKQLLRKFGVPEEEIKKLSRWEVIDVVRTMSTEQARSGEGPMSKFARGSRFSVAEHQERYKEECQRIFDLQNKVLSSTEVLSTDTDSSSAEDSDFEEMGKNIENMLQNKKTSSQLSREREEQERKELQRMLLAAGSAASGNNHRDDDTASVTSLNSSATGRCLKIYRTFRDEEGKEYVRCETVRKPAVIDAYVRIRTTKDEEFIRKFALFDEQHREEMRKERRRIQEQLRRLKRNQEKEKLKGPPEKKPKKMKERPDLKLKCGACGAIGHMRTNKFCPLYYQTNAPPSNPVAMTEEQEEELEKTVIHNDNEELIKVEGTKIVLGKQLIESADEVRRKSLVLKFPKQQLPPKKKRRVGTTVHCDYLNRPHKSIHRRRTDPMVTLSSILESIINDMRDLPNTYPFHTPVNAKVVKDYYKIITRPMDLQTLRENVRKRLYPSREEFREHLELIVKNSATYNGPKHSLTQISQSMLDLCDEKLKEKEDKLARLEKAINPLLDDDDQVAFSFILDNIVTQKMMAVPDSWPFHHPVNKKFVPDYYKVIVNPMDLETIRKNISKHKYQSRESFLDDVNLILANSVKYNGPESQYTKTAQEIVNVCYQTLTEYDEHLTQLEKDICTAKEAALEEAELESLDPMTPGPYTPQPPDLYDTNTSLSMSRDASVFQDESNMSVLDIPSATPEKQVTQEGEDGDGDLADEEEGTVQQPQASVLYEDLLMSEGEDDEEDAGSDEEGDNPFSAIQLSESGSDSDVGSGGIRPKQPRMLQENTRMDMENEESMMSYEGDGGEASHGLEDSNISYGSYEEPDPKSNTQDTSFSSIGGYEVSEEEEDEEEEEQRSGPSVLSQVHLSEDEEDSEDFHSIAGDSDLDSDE

SMILES | IC50 [nM]
CN1CCC(N(C)C(=O)c2cn(C)c(=O)c3[nH]ccc23)CC1 | 6100
C=CCn1cc(C(=O)N(C)C2CCN(c3cc(-c4ccco4)ncn3)CC2)c2cc[nH]c2c1=O | 2500
C=CCn1cc(C(=O)N(C)C2CCN(c3cc(OC)nc(C)n3)CC2)c2cc[nH]c2c1=O | 2700
C=CCn1cc(C(=O)N(C)C2CCN(c3cc(C)nc(C)n3)CC2)c2cc[nH]c2c1=O | 5100
CN1CCC(NC(=O)c2cn(C)c(=O)c3[nH]ccc23)CC1 | 130
C=CCn1cc(C(=O)N(C)C2CCN(c3cc(-c4ccccc4F)ncn3)CC2)c2cc[nH]c2c1=O | 2500
C=CCn1cc(C(=O)N(C)C2CCN(c3cc(C4CC4)nc(C)n3)CC2)c2cc[nH]c2c1=O | 3300

Now from value to compound:

IC50 [nM] | SMILES
2100 | C=CCn1cc(C(=O)N(C)C2CCN(c3ccncn3)CC2)c2cc[nH]c2c1=O
2800 | C=CCn1cc(C(=O)N(C)C2CCN(c3cc(OC)ncn3)CC2)c2cc[nH]c2c1=O
1800 | C=CCn1cc(C(=O)N(C)C2CCN(c3cc(C4CC4)ncn3)CC2)c2cc[nH]c2c1=O
2600 | C=CCn1cc(C(=O)N(C)C2CCN(c3cc(-c4ccccc4OC)ncn3)CC2)c2cc[nH]c2c1=O

biological target: T2, Bromodomain-containing protein 9 (Homo sapiens, UniProt Q9H8M2); experiment: Inhibition of recombinant human N-terminal His6-FLAG-tagged BRD9 (unknown origin) expressed in Rosetta2 (DE3) pLysS cells after 60 mins by TR-FRET assay; format: cell-based
T2 sequence (Q9H8M2 whole entry): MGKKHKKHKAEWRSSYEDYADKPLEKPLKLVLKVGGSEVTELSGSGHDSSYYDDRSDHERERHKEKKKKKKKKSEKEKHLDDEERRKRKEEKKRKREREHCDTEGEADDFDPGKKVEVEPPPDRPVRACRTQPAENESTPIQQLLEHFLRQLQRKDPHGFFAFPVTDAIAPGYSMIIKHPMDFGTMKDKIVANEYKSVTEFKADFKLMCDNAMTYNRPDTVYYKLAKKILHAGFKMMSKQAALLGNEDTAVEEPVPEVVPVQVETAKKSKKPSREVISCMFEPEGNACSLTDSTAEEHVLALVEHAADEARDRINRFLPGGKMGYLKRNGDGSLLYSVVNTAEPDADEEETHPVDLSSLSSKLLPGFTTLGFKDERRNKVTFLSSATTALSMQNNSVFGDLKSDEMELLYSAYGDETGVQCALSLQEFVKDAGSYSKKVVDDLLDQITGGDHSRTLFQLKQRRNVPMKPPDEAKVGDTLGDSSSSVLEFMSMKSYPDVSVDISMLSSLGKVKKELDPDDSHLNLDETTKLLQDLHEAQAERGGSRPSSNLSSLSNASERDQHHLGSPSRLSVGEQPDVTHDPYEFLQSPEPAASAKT

SMILES | IC50 [nM]
CN1CCC(N(C)C(=O)c2cn(C)c(=O)c3[nH]ccc23)CC1 | > 20000
C=CCn1cc(C(=O)N(C)C2CCN(c3cc(-c4ccco4)ncn3)CC2)c2cc[nH]c2c1=O | 3300
C=CCn1cc(C(=O)N(C)C2CCN(c3cc(OC)nc(C)n3)CC2)c2cc[nH]c2c1=O | 5800
C=CCn1cc(C(=O)N(C)C2CCN(c3cc(C)nc(C)n3)CC2)c2cc[nH]c2c1=O | 7600
CN1CCC(NC(=O)c2cn(C)c(=O)c3[nH]ccc23)CC1 | 2400
C=CCn1cc(C(=O)N(C)C2CCN(c3cc(-c4ccccc4F)ncn3)CC2)c2cc[nH]c2c1=O | 1500
C=CCn1cc(C(=O)N(C)C2CCN(c3cc(C4CC4)nc(C)n3)CC2)c2cc[nH]c2c1=O | 3500

Next, values leading:

IC50 [nM] | SMILES
5000 | C=CCn1cc(C(=O)N(C)C2CCN(c3ccncn3)CC2)c2cc[nH]c2c1=O
8500 | C=CCn1cc(C(=O)N(C)C2CCN(c3cc(OC)ncn3)CC2)c2cc[nH]c2c1=O
6100 | C=CCn1cc(C(=O)N(C)C2CCN(c3cc(C4CC4)ncn3)CC2)c2cc[nH]c2c1=O
2600 | C=CCn1cc(C(=O)N(C)C2CCN(c3cc(-c4ccccc4OC)ncn3)CC2)c2cc[nH]c2c1=O

biological target: T1, Bromodomain-containing protein 4; experiment: Inhibition of recombinant human N-terminal His6-FLAG-tagged BRD4 bromodomain 1 expressed in Rosetta2 (DE3) pLysS cells after 60 mins by TR-FRET assay; format: cell-based

SMILES | IC50 [nM]
CN1CCC(N(C)C(=O)c2cn(C)c(=O)c3[nH]ccc23)CC1 | > 20000
C=CCn1cc(C(=O)N(C)C2CCN(c3cc(-c4ccco4)ncn3)CC2)c2cc[nH]c2c1=O | > 20000
C=CCn1cc(C(=O)N(C)C2CCN(c3cc(OC)nc(C)n3)CC2)c2cc[nH]c2c1=O | > 20000
C=CCn1cc(C(=O)N(C)C2CCN(c3cc(C)nc(C)n3)CC2)c2cc[nH]c2c1=O | > 20000
CN1CCC(NC(=O)c2cn(C)c(=O)c3[nH]ccc23)CC1 | > 20000
C=CCn1cc(C(=O)N(C)C2CCN(c3cc(-c4ccccc4F)ncn3)CC2)c2cc[nH]c2c1=O | > 20000
C=CCn1cc(C(=O)N(C)C2CCN(c3cc(C4CC4)nc(C)n3)CC2)c2cc[nH]c2c1=O | > 20000

The remaining lines, values ahead:

IC50 [nM] | SMILES
> 20000 | C=CCn1cc(C(=O)N(C)C2CCN(c3ccncn3)CC2)c2cc[nH]c2c1=O
> 20000 | C=CCn1cc(C(=O)N(C)C2CCN(c3cc(OC)ncn3)CC2)c2cc[nH]c2c1=O
> 20000 | C=CCn1cc(C(=O)N(C)C2CCN(c3cc(C4CC4)ncn3)CC2)c2cc[nH]c2c1=O
> 20000 | C=CCn1cc(C(=O)N(C)C2CCN(c3cc(-c4ccccc4OC)ncn3)CC2)c2cc[nH]c2c1=O
